Source: publication PMC5130624 (International journal for parasitology, 2016)
Like-named read-outs stand apart in the source and are kept apart here.

Columns and labels:
TgCDPK1 = settings: read-out: TgCDPK1 enzyme IC50; ref Johnson et al., 2012; cited from earlier work
[1] = tested on: S. neurona strain F9F merozoites; assay: S. neurona parasite growth assay in bovine turbinate cells; assay type: cell-based, Sarcocystis neurona
recombinant SnCDPK1 [2] = assay: SnCDPK1 kinase activity assay; assay type: biochemical, Sarcocystis neurona; settings: read-out: SnCDPK1 enzyme IC50; inhibition of phosphorylation activity
[3] = tested on: SnCDPK1 in S. neurona cell lysate; assay: Cell lysate thermal shift assay; assay type: binding, Sarcocystis neurona; settings: BKI 2 µM, 0.5% DMSO, Tm (compound)-Tm (DMSO)
hERG = settings: cited from earlier work
[4] = Oral pharmacokinetics in newborn calves; settings: unpublished data
[5] = bovine, in vivo
recombinant SnCDPK1 [6] = assay: Recombinant SnCDPK1 thermal shift assay; assay type: binding, Sarcocystis neurona; settings: 20 µM BKI, 5% DMSO; change in Tm vs DMSO control
recombinant TgCDPK1 = target: T1, recombinant TgCDPK1 (Toxoplasma gondii, UniProt Q9BJF5); assay: Recombinant TgCDPK1 thermal shift assay; assay type: binding; settings: 20 µM BKI, 5% DMSO; change in Tm vs DMSO control
T1 sequence (Q9BJF5 1-507): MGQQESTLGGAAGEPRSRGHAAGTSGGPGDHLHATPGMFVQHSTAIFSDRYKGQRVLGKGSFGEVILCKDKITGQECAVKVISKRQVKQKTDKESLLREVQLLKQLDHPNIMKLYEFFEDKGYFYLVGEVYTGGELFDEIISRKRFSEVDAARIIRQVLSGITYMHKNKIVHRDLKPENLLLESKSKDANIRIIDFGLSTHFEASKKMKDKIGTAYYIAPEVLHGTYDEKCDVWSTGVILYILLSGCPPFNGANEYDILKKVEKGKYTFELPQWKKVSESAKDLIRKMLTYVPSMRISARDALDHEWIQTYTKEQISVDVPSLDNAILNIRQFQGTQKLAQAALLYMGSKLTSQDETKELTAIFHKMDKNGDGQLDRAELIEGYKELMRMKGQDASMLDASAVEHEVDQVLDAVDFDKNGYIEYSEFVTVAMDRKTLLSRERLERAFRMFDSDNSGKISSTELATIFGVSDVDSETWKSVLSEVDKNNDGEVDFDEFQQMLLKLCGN

Compound | IC50 (TgCDPK1) | EC50 ([1]; Sarcocystis neurona, in Bos taurus, 96 h, read-out: S. neurona cell growth EC50) | Effect of time of addition on growth inhibition ([1]; added at parasite inoculation (0 h) versus 2 h p.i., 4 days) | IC50 (recombinant SnCDPK1 [2]) | S. neurona cell CDPK1 Thermal Stability (°C) [3] | hERG inhibition (hERG; ref Ojo et al., 2014a) | Oral pharmacokinetics [4] | Oral pharmacokinetics [5] | Recombinant SnCDPK1 Thermal Shift (°C) at 20 µM (recombinant SnCDPK1 [6]) | Recombinant TgCDPK1 Thermal Shift (°C) at 20 µM (recombinant TgCDPK1) | hERG inhibition (hERG; ref Vidadala et al., 2016)
CCOc1ccc2cc(-c3nn(CC4CCN(C)CC4)c4ncnc(N)c34)ccc2c1 [compound 1294] | […] | 68 nM | more effective if added at the time of infection rather than 2 h later | < 10 nM | 2.7 °C | has recently been shown to have hERG inhibition | outstanding oral pharmacokinetics | – | – | – | –
CCOc1ccc2cc(-c3nn(C(C)(C)C)c(N)c3C(N)=O)cnc2c1 [compound 1517] | – | – | – | < 10 nM | 8.0 °C | – | – | outstanding oral pharmacokinetics | 9.6 °C | 10.5 °C | lack of hERG inhibition
